Publication PMC5642494 (Oncotarget, 2017)

Key:
ZR-75-1 xenograft tumors = assay: mRNA expression of cell cycle regulatory genes in ZR-75-1 xenograft tumors; format: in vivo, mouse; conditions: 50 or 75 mg/kg QDx5; Cyclin E, MCM7, CDKN2C, PTEN, AURA, CCNB1, FOXM1, RRM2, MKI67, Topo IIα
Description: page 4: or pHH3 facilitates quantification of the inhibition of #79654). The suspension was placed on the Qiashredder cell cycle progression since lower expression of these 2 columns (Qiagen #79654) and RNA was purified by biomarkers quantitatively correlates with the extent of following the protocol for the RNAeasy Mini Kit (Qiagen progression of cells through either S-phase (Topo IIα) or # 74104). Following the last wash, the purified RNA was M-phase (pHH3). The inhibition of CDK9 was assessed eluted using […] RNase-free water and collected in by measuring the inhibition of either MCL1 expression labeled DNase/RNase-free collection tubes. The quantity or phosphorylation of […] on the C-terminal domain of RNA was measured by spectral analysis using the repeat on RNA polymerase II (pCTD). The visualization Nanodrop Spectrophotometer (NanoDrop Products, of the signals corresponding to these biomarkers was Wilmington, DE, USA) and then placed in -80 degree […] achieved through development with the ECL SuperSignal freezer for analysis. The cDNA preparation was completed chemo-luminescence kit (Pierce) and image capture using as described in the included kit protocol using Superscript the Fuji LAS400 image capture instrument. […] Isolation and purification of RNA from tumors All samples, once quantitated, were delivered to […] […]

MCF7 cells [1] = assay: SA-β-gal immunofluorescence (senescence), MCF7; format: cell-based, human
Description: (§1) After treatment, cells were fixed, washed with PBS, permeabilized and β-gal was detected using anti-β-galactosidase antibody; for multiplexed assays, TUNEL staining was carried out using Roche TUNEL reagents as indicated above. Nuclei were also stained with PI for total cell counting. Plates were read in an Acumen Explorer Ex3 (TTP Labtech) and raw data were analyzed with Cellista software. Outputs were expressed as percentages of each identified subpopulation 1) positive β-gal, and 2) total cell number. The percentages of β-gal positive cells, TUNEL positive cells, and cell numbers were plotted in Microsoft Excel.

[2] = test system: MCF7, MDA-MB-361 and EFM-19 cells; assay: Cell morphology by bright field microscopy; format: cell-based, human; conditions: 0.5 µM, 3 DT
Description: (A–D) Cells were treated with 0.2% DMSO (A MDA-
3 DT and side scatter (SSC) analysis was carried out using flow cytometry and analyzed with FlowJo X software.

MCF7 cells [3] = assay: Multiplexed cell number, β-gal and TUNEL in MCF7; format: cell-based, human; conditions: 0.125 µM or 0.5 µM, 1-5 DT
Description: The viable cell number was determined by PI staining, the % of β-gal positive cells was determined using an antibody to β-gal, and the % of Tunel positive cells was determined by the incorporation of labelled dUTP. The data are plotted as the mean (+/- SD) of 2 experiments for CDK4 and CDK6 inhibitor treatment, and the mean of 6 experiments (+/- SD) for untreated samples. The duration of treatment is plotted along the x-axis in doubling times (DT) for MCF7 cells.
as §1

## CCN1CCN(Cc2ccc(Nc3ncc(F)c(-c4cc(F)c5nc(C)n(C(C)C)c5c4)n3)nc2)CC1 [abemaciclib, Abemaciclib]
ZR-75-1 xenograft tumors
  mRNA expression of cell cycle genes in tumors: suppression of the expression of several genes
MCF7 cells [1]; 0.5 µM, 4 days
  % β-gal Positive MCF7 Cells: 16.15 ± 1.48%
MCF7 cells [1]; 0.5 µM, 7 days
  % β-gal Positive MCF7 Cells: 16.25 ± 0.35%
MCF7 cells [1]; 0.5 µM, 10 days
  % β-gal Positive MCF7 Cells: 19.7 ± 1.83%
MCF7 cells [1]; 2 µM, 4 days
  % β-gal Positive MCF7 Cells: 42.45 ± 5.86%
MCF7 cells [1]; 2 µM, 7 days
  % β-gal Positive MCF7 Cells: 55.4 ± 18.8%
MCF7 cells [1]; 2 µM, 10 days
  % β-gal Positive MCF7 Cells: 30.85 ± 3.46%
[2]
  cell morphology: larger and flatter compared to vehicle-treated cells
MCF7 cells [3]
  TUNEL staining: increase in TUNEL staining was observed by 2DT
